Here are results for one compound from patent US11066629B2, “Lipid metabolism-promoting composition including isoxanthohumol” (SUNTORY HOLDINGS LIMITED, priority 2016, dated 2021).

For data set [1] the following is noted: heating; isoxanthohumol at 100° C.; cited from earlier work.
A short description of data set [2]: Solubility in water under ice cooling conditions (Experiment A). The format is physicochemical. Particulars: distilled water, ppm on w/v basis. An excerpt:
The solubility of each of the standard samples of xanthohumol and isoxanthohumol in water (Experiment A) and various solvents (Experiment B) under ice cooling conditions was studied to evaluate the suitability for beverage applications. Xanthohumol and isoxanthohumol were the standard samples obtained in Preparation Example 1 (purity of 95% or higher).
A sample containing distilled water and xanthohumol or isoxanthohumol having a weight corresponding to 0.2% (w/v) of the distilled water was prepared, and each standard sample was allowed to dissolve in distilled water as much as possible by stirring in a vortex mixer for 10 seconds or longer and shaking for about 60 minutes under ice cooling conditions. Further, centrifugation was performed (12,000 rpm, 4° C., for 5 minutes), and the supernatant was collected. This procedure was repeated three times. The finally obtained supernatant was used as a xanthohumol saturated aqueous solution or an isoxanthohumol saturated aqueous solution. The saturated aqueous solution was 100-fold diluted with a 25% aqueous ethanol solution to obtain a sample for analysis. The sample was subjected to quantitative analysis using an LC-MS/MS system (TSQ Quantiva, Thermo Fisher Scientific Inc.) to evaluate the solubility in water. […] Note that ppm is ppm on w/v basis unless otherwise specified. […]

Data set [3] has as its system high-fat diet mouse model. Particulars: repeated dose 30 mg/kg/day; cited from earlier work.
For data set [4], the system named is type II diabetes mouse model. Particulars: feed containing xanthohumol at 1%; cited from earlier work.

`COc1cc(O)c(CC=C(C)C)c(O)c1C(=O)/C=C/c1ccc(O)cc1` [xanthohumol]: the thermal stability entry in data set [1] is recorded as “thermally unstable”. Besides, the “Solubility in water (ice cooling conditions)” value in data set [2] is given as “Less than 0.5 ppm”. Moreover, the body weight increase entry in data set [3] is “suppression of body weight increase”. Also, in data set [4], the body weight gain result is reported as “tendency of suppression of body weight gain” and the “weight of fat around kidney or the like” value is “decrease”.
